In patent US20140023611A1 (priority 2010, published 2014):

Target: T1, rat NaP2b (SLC34A2) (Rattus norvegicus, UniProt Q9JJ09)
T1 construct: host or cells: HEK293
T1 sequence (Q9JJ09 1-695): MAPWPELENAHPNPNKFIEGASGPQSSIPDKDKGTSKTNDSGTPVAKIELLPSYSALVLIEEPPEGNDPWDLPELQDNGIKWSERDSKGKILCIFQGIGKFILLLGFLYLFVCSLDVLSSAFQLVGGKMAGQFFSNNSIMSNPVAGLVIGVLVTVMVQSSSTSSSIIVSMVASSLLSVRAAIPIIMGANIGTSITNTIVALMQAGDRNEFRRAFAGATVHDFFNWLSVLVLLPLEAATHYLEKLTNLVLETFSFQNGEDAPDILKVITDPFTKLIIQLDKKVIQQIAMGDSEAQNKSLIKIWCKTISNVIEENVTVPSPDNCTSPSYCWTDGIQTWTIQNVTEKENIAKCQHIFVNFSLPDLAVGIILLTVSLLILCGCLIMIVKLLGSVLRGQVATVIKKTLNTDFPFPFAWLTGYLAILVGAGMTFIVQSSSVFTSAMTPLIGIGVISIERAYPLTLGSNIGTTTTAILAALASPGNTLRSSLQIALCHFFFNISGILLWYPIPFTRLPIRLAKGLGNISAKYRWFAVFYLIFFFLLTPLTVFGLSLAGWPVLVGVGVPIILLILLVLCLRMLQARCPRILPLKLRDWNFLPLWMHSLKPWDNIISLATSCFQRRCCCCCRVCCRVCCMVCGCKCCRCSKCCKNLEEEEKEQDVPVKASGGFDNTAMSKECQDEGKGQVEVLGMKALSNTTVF
Assay: Inhibition of NaP2b-mediated Pi (33P) uptake in transfected HEK293 cells, rat NaP2b
Format: cell-based
Details: 33P Pi uptake, 0.1 mM phosphate, value given as pIC50 range
Procedure, shortened: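 The cells transiently expressed NaP2b after Lipofectamine transfection. Each compound was run in duplicate over twelve concentrations, 0.1 nM–30 uM.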

| SMILES | IC50 [µM] |
| --- | --- |
| CN(CCN1CCOCC1)C(=O)c1cccc(C(=O)Nc2ccc(N3CCCCC3)cc2-c2cc(C(=O)NCc3ccccc3OC(F)(F)F)ccn2)c1 [Example 123, N1-(2-(4-((2-(trifluoromethoxy)benzyl)carbamoyl)pyridin-2-yl)-4-(piperidin-1-yl)phenyl)-N3-methyl-N3-(2-morpholinoethyl)isophthalamide] | 1 to 7.94 |
| COc1ccccc1CNC(=O)c1ccnc(-c2cc(N3CCCCC3)ccc2NC(=O)c2cccc(C(=O)N(C)CCN3CCOCC3)c2)c1 [Example 124, N1-(2-(4-((2-methoxybenzyl)carbamoyl)pyridin-2-yl)-4-(piperidin-1-yl)phenyl)-N3-methyl-N3-(2-morpholinoethyl)isophthalamide] | 1 to 7.94 |
| CCCCN(C)c1ccc(NC(=O)c2cccc(C(=O)N(C)CCN3CCOCC3)c2)c(-c2cc(C(=O)NCc3cccc(C(F)(F)F)c3)ccn2)c1 [Example 127, N1-(4-(butyl(methyl)amino)-2-(4-(3-(trifluoromethyl)benzylcarbamoyl)pyridin-2-yl)phenyl)-N3-methyl-N3-(2-morpholinoethyl)isophthalamide] | 10 to 31.6 |
| CCCN(C)c1ccc(NC(=O)c2cccc(C(=O)N(C)CCN3CCOCC3)c2)c(-c2cc(C(=O)NCc3cccc(C(F)(F)F)c3)ccn2)c1 [Example 129, N^1-methyl-N^3-(4-(methyl(propyl)amino)-2-(4-((3-(trifluoromethyl)benzyl)carbamoyl)pyridin-2-yl)phenyl)-N-(2-morpholinoethyl)isophthalamide] | 1 to 7.94 |
| CN(CCN1CCOCC1)C(=O)c1cccc(C(=O)Nc2ccc(C(F)(F)F)cc2-c2cc(C(=O)N[C@H]3CCCc4ccccc43)ccn2)c1 [Example 130, (S)—N1-methyl-N1-(2-morpholinoethyl)-N3-(2-(4-(1,2,3,4-tetrahydronaphthalen-1-ylcarbamoyl)pyridin-2-yl)-4-(trifluoromethyl)phenyl)isophthalamide] | 1 to 7.94 |
| CN(CCN1CCOCC1)C(=O)c1cccc(C(=O)Nc2ccc(OC3CCCC3)cc2-c2cc(C(=O)N[C@H]3CCCc4ccccc43)ccn2)c1 [Example 133, (S)—N^1-(4-(cyclopentyloxy)-2-(4-((1,2,3,4-tetrahydronaphthalen-1-yl)carbamoyl)pyridin-2-yl)phenyl)-N^3-methyl-N^3-(2-morpholinoethyl)isophthalamide] | 1 to 7.94 |
| CN(CCN1CCOCC1)C(=O)Cc1cccc(SCc2cccc(C(=O)Nc3ccc(N4CCCCC4)cc3-c3cc(C(=O)NCc4cccc(C(F)(F)F)c4)ccn3)c2)c1 [Example 136, 2-(2-(3-((3-(2-(methyl(2-morpholinoethyl)amino)-2-oxoethyl)phenylthio)methyl)benzamido)-5-(piperidin-1-yl)phenyl)-N-(3-(trifluoromethyl)benzyl)isonicotinamide] | 1 to 7.94 |
| O=C(O)CNC(=O)Cc1cccc(SCc2cccc(C(=O)Nc3ccc(N4CCCCC4)cc3-c3cc(C(=O)NCc4cccc(C(F)(F)F)c4)ccn3)c2)c1 [Example 139] | 10 to 31.6 |
| O=C(O)CCNC(=O)Cc1cccc(SCc2cccc(C(=O)Nc3ccc(N4CCCCC4)cc3-c3cc(C(=O)NCc4cccc(C(F)(F)F)c4)ccn3)c2)c1 [Example 140] | 1 to 7.94 |
| O=C(O)CN(CCOCCO)C(=O)CCOCCOCCOCCOCCSCc1cccc(C(=O)Nc2ccc(N3CCCCC3)cc2-c2cc(C(=O)NCc3cccc(C(F)(F)F)c3)ccn2)c1 [Example 145, 18-(2-(2-hydroxyethoxy)ethyl)-17-oxo-1-(3-(4-(piperidin-1-yl)-2-(4-(3-(trifluoromethyl)benzylcarbamoyl)pyridin-2-yl)phenylcarbamoyl)phenyl)-5,8,11,14-tetraoxa-2-thia-18-azaicosan-20-oic acid] | 10 to 31.6 |
| CC(=O)N1CCCN(C(=O)CCOCCOCCOCCOCCSCc2cccc(C(=O)Nc3ccc(N4CCCCC4)cc3-c3cc(C(=O)NCc4cccc(C(F)(F)F)c4)ccn3)c2)CC1 [Example 153, 2-(2-(3-(17-(4-acetyl-1,4-diazepan-1-yl)-17-oxo-5,8,11,14-tetraoxa-2-thiaheptadecyl)benzamido)-5-(piperidin-1-yl)phenyl)-N-(3-(trifluoromethyl)benzyl)isonicotinamide] | 10 to 31.6 |
| O=C(NCc1cccc(C(F)(F)F)c1)c1ccnc(-c2cc(N3CCCCC3)ccc2NC(=O)c2cccc(CSCCOCCOCCOCCOCCC(=O)N3CCC(N4CCOCC4)CC3)c2)c1 [Example 154, 2-(2-(3-(17-(4-morpholinopiperidin-1-yl)-17-oxo-5,8,11,14-tetraoxa-2-thiaheptadecyl)benzamido)-5-(piperidin-1-yl)phenyl)-N-(3-(trifluoromethyl)benzyl)isonicotinamide] | 10 to 31.6 |

Continued, values first:

| IC50 [µM] | SMILES |
| --- | --- |
| 1 to 7.94 | COc1cc(C(F)(F)F)ccc1CNC(=O)c1ccnc(-c2cc(N3CCCCC3)ccc2NC(=O)c2cccc(C(=O)N(C)CCN3CCOCC3)c2)c1 [Example 121, N1-(2-(4-((2-methoxy-4-(trifluoromethyl)benzyl)carbamoyl)pyridin-2-yl)-4-(piperidin-1-yl)phenyl)-N3-methyl-N3-(2-morpholinoethyl)isophthalamide] |
| 1 to 7.94 | COc1ccc(C(F)(F)F)cc1CNC(=O)c1ccnc(-c2cc(N3CCCCC3)ccc2NC(=O)c2cccc(C(=O)N(C)CCN3CCOCC3)c2)c1 [Example 125, N1-(2-(4-((2-methoxy-5-(trifluoromethyl)benzyl)carbamoyl)pyridin-2-yl)-4-(piperidin-1-yl)phenyl)-N3-methyl-N3-(2-morpholinoethyl)isophthalamide] |
| 1 to 7.94 | CCCN(CC)c1ccc(NC(=O)c2cccc(C(=O)N(C)CCN3CCOCC3)c2)c(-c2cc(C(=O)NCc3cccc(C(F)(F)F)c3)ccn2)c1 [Example 128, N1-(2-(4-((3-(trifluoromethyl)benzyl)carbamoyl)pyridin-2-yl)-4-(ethyl(propyl)amino)phenyl)-N3-methyl-N3-(2-morpholinoethyl)isophthalamide] |
| 1 to 7.94 | O=C(O)COc1cccc(SCc2cccc(C(=O)Nc3ccc(N4CCCCC4)cc3-c3cc(C(=O)NCc4cccc(C(F)(F)F)c4)ccn3)c2)c1 [Example 134, 2-(3-(3-(4-(piperidin-1-yl)-2-(4-(3-(trifluoromethyl)benzylcarbamoyl)pyridin-2-yl)phenylcarbamoyl)benzylthio)phenoxy)acetic acid] |
| 1 to 7.94 | CN(CCOCCOCCOCCC(=O)O)C(=O)c1cccc(SCc2cccc(C(=O)Nc3ccc(N4CCCCC4)cc3-c3cc(C(=O)NCc4cccc(C(F)(F)F)c4)ccn3)c2)c1 [Example 135, 3-(2-(2-(2-(N-methyl-3-(3-(4-(piperidin-1-yl)-2-(4-(3-(trifluoromethyl)benzylcarbamoyl)pyridin-2-yl)phenylcarbamoyl)benzylthio)benzamido)ethoxy)ethoxy)ethoxy)propanoic acid] |
| 10 to 31.6 | O=C(O)CCOCCOCCOCCNC(=O)CCOCCOCCOCCOCCSCc1cccc(C(=O)Nc2ccc(N3CCCCC3)cc2-c2cc(C(=O)NCc3cccc(C(F)(F)F)c3)ccn2)c1 [Example 155, 17-oxo-1-(3-(4-(piperidin-1-yl)-2-(4-(3-(trifluoromethyl)benzylcarbamoyl)pyridin-2-yl)phenylcarbamoyl)phenyl)-5,8,11,14,21,24,27-heptaoxa-2-thia-18-azatriacontan-30-oic acid] |
